From PMC12670405, “Second-Generation AURKA-Targeting PROTACs: Structural Optimization toward in Vivo Degradation in Neuroblastoma” (Journal of Medicinal Chemistry, 2025)

How the values were obtained:
Assay in all cases: KINOMEscan scanMAX
Format in all cases: binding
[1] = target: T1, GRK4 (Homo sapiens, UniProt P32298); conditions: read-out: Percent Control
T1 construct: purchased Eurofins Discovery (DiscoverX KINOMEscan scanMAX)
Method: (§1) The kinome-wide binding assay was performed by Eurofins Discovery using the scanMAX screening platform. More information can be found on the Eurofins Discovery Web site.

[2] = target: T2, MTOR (Homo sapiens, UniProt P42345); conditions: read-out: Percent Control
T2 construct: purchased Eurofins Discovery (DiscoverX KINOMEscan scanMAX)
Method: as §1

[3] = target: T3, GRK1 (Homo sapiens, UniProt Q15835); conditions: read-out: Percent Control
T3 construct: purchased Eurofins Discovery (DiscoverX KINOMEscan scanMAX)
Method: as §1

[4] = target: T4, NEK1 (Homo sapiens, UniProt Q96PY6); conditions: read-out: Percent Control
T4 construct: purchased Eurofins Discovery (DiscoverX KINOMEscan scanMAX)
Method: as §1

[5] = target: T5, p38-gamma (Homo sapiens, UniProt P53778); conditions: read-out: Percent Control
T5 construct: purchased Eurofins Discovery (DiscoverX KINOMEscan scanMAX)
Method: as §1

[6] = tested on: FLT3(ITD,F691L)
Method: as §1

[7] = target: T6, MEK6 (Homo sapiens, UniProt P52564); conditions: read-out: Percent Control
T6 construct: purchased Eurofins Discovery (DiscoverX KINOMEscan scanMAX)
Method: as §1

[8] = target: T7, CDK4-cyclinD3 (Homo sapiens, UniProt P11802); conditions: read-out: Percent Control
T7 construct: purchased Eurofins Discovery (DiscoverX KINOMEscan scanMAX)
Method: as §1

[9] = target: T8, EGFR(L861Q) (Homo sapiens, UniProt P00533, L861Q); conditions: read-out: Percent Control
T8 construct: purchased Eurofins Discovery (DiscoverX KINOMEscan scanMAX)
Method: as §1

[10] = target: T9, PAK4 (Homo sapiens, UniProt O96013); conditions: read-out: Percent Control
T9 construct: purchased Eurofins Discovery (DiscoverX KINOMEscan scanMAX)
Method: as §1

[11] = target: T10, ULK2 (Homo sapiens, UniProt Q8IYT8); conditions: read-out: Percent Control
T10 construct: purchased Eurofins Discovery (DiscoverX KINOMEscan scanMAX)
Method: as §1

[12] = target: T11, WNK2 (Homo sapiens, UniProt Q9Y3S1); conditions: read-out: Percent Control
T11 construct: purchased Eurofins Discovery (DiscoverX KINOMEscan scanMAX)
Method: as §1

[13] = target: T12, PIP5K1A (Homo sapiens, UniProt Q99755); conditions: read-out: Percent Control
T12 construct: purchased Eurofins Discovery (DiscoverX KINOMEscan scanMAX)
Method: as §1

[14] = target: T13, ABL1 (Homo sapiens, UniProt P00519); conditions: 1000 nM; read-out: Percent Control
T13 construct: purchased Eurofins Discovery
Method: as §1

[15] = target: T14, ACVR2A (Homo sapiens, UniProt P27037); conditions: read-out: Percent Control
T14 construct: purchased Eurofins Discovery (DiscoverX KINOMEscan scanMAX)
Method: as §1

[16] = target: T15, EPHA4 (Homo sapiens, UniProt P54764); conditions: read-out: Percent Control
T15 construct: purchased Eurofins Discovery (DiscoverX KINOMEscan scanMAX)
Method: as §1

[17] = target: T16, LYN (Homo sapiens, UniProt P07948); conditions: read-out: Percent Control
T16 construct: purchased Eurofins Discovery (DiscoverX KINOMEscan scanMAX)
Method: as §1

[18] = target: T17, TAOK3 (Homo sapiens, UniProt Q9H2K8); conditions: read-out: Percent Control
T17 construct: purchased Eurofins Discovery (DiscoverX KINOMEscan scanMAX)
Method: as §1

[19] = target: T18, CSNK1D (Homo sapiens, UniProt P48730); conditions: read-out: Percent Control
T18 construct: purchased Eurofins Discovery (DiscoverX KINOMEscan scanMAX)
Method: as §1

[20] = target: T19, JAK2(JH1domain-catalytic) (Homo sapiens, UniProt O60674); conditions: read-out: Percent Control
T19 construct: JAK2(JH1domain-catalytic); purchased Eurofins Discovery (DiscoverX KINOMEscan scanMAX)
Method: as §1

[21] = target: T20, RIPK5 (Homo sapiens, UniProt Q6XUX3); conditions: read-out: Percent Control
T20 construct: purchased Eurofins Discovery (DiscoverX KINOMEscan scanMAX)
Method: as §1

[22] = target: T21, PRKD3 (Homo sapiens, UniProt O94806); conditions: read-out: Percent Control
T21 construct: purchased Eurofins Discovery (DiscoverX KINOMEscan scanMAX)
Method: as §1

[23] = target: T22, MAPKAPK2 (Homo sapiens, UniProt P49137); conditions: read-out: Percent Control
T22 construct: purchased Eurofins Discovery (DiscoverX KINOMEscan scanMAX)
Method: as §1

[24] = target: T23, ABL1(F317I)-nonphosphorylated (Homo sapiens, UniProt P00519, F317I); conditions: read-out: Percent Control
T23 construct: purchased Eurofins Discovery (DiscoverX KINOMEscan scanMAX)
Method: as §1

[25] = target: T24, CTK (Homo sapiens, UniProt P42679); conditions: read-out: Percent Control
T24 construct: purchased Eurofins Discovery (DiscoverX KINOMEscan scanMAX)
Method: as §1

[26] = target: T25, BMPR1B (Homo sapiens, UniProt O00238); conditions: read-out: Percent Control
T25 construct: purchased Eurofins Discovery (DiscoverX KINOMEscan scanMAX)
Method: as §1

[27] = target: T26, TYK2(JH2domain-pseudokinase) (Homo sapiens, UniProt P29597); conditions: read-out: Percent Control
T26 construct: TYK2(JH2domain-pseudokinase); purchased Eurofins Discovery (DiscoverX KINOMEscan scanMAX)
Method: as §1

[28] = target: T27, MAP3K1 (Homo sapiens, UniProt Q13233); conditions: read-out: Percent Control
T27 construct: purchased Eurofins Discovery (DiscoverX KINOMEscan scanMAX)
Method: as §1

[29] = target: T28, HCK (Homo sapiens, UniProt P08631); conditions: read-out: Percent Control
T28 construct: purchased Eurofins Discovery (DiscoverX KINOMEscan scanMAX)
Method: as §1

[30] = target: T29, KIT(L576P) (Homo sapiens, UniProt P10721, L576P); conditions: read-out: Percent Control
T29 construct: purchased Eurofins Discovery (DiscoverX KINOMEscan scanMAX)
Method: as §1

[31] = target: T30, TSSK1B (Homo sapiens, UniProt Q9BXA7); conditions: read-out: Percent Control
T30 construct: purchased Eurofins Discovery (DiscoverX KINOMEscan scanMAX)
Method: as §1

[32] = target: T31, ANKK1 (Homo sapiens, UniProt Q8NFD2); conditions: read-out: Percent Control
T31 construct: purchased Eurofins Discovery (DiscoverX KINOMEscan scanMAX)
Method: as §1

[33] = target: T32, SNARK (Homo sapiens, UniProt Q9H093); conditions: read-out: Percent Control
T32 construct: purchased Eurofins Discovery (DiscoverX KINOMEscan scanMAX)
Method: as §1

T21 sequence (O94806 whole entry): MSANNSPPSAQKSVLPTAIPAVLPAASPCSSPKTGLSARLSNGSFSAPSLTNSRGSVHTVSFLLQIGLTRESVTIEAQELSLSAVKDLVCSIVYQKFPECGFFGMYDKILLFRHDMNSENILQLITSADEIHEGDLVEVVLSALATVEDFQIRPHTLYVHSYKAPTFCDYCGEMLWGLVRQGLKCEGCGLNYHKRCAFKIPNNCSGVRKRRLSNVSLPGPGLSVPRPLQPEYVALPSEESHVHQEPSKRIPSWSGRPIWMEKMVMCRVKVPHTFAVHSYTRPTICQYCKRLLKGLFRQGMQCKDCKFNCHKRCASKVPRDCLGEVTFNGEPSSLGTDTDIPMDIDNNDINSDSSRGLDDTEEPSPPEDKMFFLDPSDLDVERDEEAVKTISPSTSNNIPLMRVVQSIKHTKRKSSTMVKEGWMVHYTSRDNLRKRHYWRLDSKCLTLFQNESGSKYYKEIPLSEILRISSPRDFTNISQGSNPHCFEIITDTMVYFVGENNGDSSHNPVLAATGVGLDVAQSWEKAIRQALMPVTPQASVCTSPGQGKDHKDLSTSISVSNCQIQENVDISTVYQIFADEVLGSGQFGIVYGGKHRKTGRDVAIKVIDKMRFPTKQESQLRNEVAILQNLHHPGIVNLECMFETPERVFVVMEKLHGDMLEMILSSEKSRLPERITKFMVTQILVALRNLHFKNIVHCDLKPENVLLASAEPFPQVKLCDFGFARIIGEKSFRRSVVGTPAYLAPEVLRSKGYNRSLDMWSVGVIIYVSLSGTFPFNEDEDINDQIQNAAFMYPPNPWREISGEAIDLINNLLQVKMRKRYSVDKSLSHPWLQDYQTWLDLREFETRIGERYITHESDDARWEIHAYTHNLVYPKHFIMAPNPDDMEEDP
T22 sequence (P49137 whole entry): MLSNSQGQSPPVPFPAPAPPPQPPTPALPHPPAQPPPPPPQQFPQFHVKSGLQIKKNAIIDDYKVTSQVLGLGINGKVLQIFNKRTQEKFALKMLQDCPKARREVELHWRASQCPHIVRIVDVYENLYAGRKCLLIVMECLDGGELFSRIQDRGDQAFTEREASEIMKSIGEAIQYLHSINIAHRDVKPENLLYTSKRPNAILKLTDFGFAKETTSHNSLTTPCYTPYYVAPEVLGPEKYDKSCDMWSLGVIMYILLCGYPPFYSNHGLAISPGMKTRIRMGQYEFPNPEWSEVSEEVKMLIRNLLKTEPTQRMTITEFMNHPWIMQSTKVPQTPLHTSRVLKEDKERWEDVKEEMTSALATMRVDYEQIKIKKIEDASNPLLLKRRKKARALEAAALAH
T32 sequence (Q9H093 whole entry): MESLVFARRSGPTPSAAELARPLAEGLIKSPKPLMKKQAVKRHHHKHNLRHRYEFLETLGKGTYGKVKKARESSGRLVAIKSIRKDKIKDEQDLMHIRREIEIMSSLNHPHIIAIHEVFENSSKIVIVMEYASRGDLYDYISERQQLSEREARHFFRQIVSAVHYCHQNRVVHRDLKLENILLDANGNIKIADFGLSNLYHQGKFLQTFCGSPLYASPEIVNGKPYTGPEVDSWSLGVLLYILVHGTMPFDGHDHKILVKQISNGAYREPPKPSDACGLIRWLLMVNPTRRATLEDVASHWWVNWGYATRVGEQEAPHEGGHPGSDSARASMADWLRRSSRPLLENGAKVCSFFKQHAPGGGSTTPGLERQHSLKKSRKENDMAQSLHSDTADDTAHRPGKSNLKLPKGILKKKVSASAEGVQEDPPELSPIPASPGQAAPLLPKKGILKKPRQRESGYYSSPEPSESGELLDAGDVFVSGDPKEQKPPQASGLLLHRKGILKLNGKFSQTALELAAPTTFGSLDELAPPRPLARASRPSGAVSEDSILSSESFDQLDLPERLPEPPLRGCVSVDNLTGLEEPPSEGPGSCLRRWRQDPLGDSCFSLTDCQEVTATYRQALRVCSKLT
T15 sequence (P54764 20-986): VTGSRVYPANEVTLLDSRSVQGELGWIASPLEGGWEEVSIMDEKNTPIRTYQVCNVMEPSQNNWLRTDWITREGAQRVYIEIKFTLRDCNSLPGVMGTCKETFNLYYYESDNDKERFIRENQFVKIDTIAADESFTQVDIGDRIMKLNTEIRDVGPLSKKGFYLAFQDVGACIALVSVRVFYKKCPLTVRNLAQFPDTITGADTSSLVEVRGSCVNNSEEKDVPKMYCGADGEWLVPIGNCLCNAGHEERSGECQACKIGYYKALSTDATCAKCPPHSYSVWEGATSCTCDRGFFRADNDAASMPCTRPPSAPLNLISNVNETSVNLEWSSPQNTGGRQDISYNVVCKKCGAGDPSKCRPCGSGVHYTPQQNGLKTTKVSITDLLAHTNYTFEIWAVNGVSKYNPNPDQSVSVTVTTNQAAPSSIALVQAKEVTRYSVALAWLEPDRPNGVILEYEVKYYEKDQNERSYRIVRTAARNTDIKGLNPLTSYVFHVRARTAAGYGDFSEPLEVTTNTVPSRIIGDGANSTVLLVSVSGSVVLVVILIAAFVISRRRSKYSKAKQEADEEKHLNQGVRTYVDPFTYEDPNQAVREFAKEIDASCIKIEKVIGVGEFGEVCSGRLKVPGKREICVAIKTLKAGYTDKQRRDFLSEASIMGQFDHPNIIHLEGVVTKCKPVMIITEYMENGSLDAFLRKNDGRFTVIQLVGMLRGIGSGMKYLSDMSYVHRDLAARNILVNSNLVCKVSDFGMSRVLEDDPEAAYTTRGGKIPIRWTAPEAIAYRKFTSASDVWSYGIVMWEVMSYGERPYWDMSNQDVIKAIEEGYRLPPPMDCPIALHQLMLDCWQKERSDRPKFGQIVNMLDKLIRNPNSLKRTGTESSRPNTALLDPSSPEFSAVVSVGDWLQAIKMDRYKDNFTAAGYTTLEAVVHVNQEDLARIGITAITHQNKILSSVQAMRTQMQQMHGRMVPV
T31 sequence (Q8NFD2 whole entry): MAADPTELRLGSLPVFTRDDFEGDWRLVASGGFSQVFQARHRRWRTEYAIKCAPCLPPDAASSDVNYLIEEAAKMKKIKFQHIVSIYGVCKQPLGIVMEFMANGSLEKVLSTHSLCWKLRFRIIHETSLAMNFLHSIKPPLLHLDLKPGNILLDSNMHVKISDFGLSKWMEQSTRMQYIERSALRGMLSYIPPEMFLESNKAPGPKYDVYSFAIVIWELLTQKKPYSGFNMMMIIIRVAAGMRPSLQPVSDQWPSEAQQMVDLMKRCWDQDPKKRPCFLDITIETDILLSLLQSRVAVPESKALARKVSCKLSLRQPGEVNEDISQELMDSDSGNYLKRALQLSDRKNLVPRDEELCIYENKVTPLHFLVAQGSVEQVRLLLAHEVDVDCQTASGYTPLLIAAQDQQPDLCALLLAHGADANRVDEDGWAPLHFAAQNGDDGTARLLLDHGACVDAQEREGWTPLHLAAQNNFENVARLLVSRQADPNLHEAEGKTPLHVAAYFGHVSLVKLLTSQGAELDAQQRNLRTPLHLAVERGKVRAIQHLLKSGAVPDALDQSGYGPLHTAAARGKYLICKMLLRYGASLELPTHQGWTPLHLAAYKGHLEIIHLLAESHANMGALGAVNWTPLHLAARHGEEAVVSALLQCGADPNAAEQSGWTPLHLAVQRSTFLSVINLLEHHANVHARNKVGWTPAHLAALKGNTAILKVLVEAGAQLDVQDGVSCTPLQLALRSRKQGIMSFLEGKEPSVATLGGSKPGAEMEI
T18 sequence (P48730 whole entry): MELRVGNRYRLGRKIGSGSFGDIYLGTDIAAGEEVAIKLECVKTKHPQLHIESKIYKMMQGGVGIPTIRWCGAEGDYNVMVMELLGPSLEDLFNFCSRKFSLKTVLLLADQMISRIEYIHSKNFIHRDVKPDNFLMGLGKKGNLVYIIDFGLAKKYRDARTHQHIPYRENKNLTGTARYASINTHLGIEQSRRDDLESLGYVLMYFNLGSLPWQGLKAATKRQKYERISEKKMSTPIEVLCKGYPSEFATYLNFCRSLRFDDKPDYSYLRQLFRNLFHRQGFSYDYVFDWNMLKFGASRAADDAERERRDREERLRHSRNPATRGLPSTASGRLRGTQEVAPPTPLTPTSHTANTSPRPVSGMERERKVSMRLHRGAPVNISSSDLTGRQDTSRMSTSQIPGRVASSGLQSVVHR
T26 sequence (P29597 556-888 limits assumed): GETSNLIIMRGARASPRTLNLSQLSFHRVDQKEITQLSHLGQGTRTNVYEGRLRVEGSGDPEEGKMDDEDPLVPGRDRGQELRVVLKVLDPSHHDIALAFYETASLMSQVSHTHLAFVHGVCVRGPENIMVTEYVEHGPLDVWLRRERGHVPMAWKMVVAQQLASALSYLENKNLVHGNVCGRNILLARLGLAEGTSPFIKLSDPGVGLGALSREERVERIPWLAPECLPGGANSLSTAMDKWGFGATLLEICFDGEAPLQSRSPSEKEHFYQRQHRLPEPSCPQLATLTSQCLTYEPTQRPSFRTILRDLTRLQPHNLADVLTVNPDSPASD
T30 sequence (Q9BXA7 whole entry): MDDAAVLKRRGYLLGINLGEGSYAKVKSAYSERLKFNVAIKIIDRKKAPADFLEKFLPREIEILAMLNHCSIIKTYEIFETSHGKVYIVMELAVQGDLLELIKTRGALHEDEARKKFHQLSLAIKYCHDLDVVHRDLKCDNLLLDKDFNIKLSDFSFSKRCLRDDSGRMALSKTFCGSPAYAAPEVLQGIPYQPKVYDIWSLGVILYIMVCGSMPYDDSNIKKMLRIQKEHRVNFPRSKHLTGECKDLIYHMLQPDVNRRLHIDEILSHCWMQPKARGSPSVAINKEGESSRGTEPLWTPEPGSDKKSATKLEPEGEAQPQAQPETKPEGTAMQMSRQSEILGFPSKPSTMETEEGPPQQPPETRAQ

Work on Cc1cc(Nc2ccc(F)c(CC3(C(=O)N4CCC(F)(CN5CCN(c6ccc(N7CCC(=O)NC7=O)cn6)CC5)CC4)CCN(Cc4cccc(Cl)c4F)CC3)n2)n[nH]1 [SK5527] yielded a remaining binding at 0.1 µM ([1]; 100 nM) of 96%, a remaining binding at 1 µM ([1]; 1000 nM) of 100% and a remaining binding at 0.1 µM ([2]; 100 nM) of 100%. For the same molecule, the remaining binding at 1 µM ([2]; 1000 nM) was 100%, the remaining binding at 0.1 µM ([3]; 100 nM) was 100% and the remaining binding at 1 µM ([3]; 1000 nM) was 85%. For the same molecule, the remaining binding at 0.1 µM ([4]; 100 nM) was 100%, the remaining binding at 1 µM ([4]; 1000 nM) was 86% and the remaining binding at 0.1 µM ([5]; 100 nM) was 97%. For the same molecule, the remaining binding at 1 µM ([5]; 1000 nM) was 87%, the “Percent Control” value ([6]; 100 nM) was 100% and the “Percent Control” value ([6]; 1000 nM) was 75%. It also gave a remaining binding at 0.1 µM ([7]; 100 nM) of 100%, a remaining binding at 1 µM ([7]; 1000 nM) of 94% and a remaining binding at 0.1 µM ([8]; 100 nM) of 100%. It also gave a remaining binding at 1 µM ([8]; 1000 nM) of 100%, a remaining binding at 0.1 µM ([9]; 100 nM) of 95% and a remaining binding at 1 µM ([9]; 1000 nM) of 100%. The remaining binding at 0.1 µM ([10]; 100 nM) was 100%, the remaining binding at 1 µM ([10]; 1000 nM) was 81% and the remaining binding at 0.1 µM ([11]; 100 nM) was 89%. For the same molecule, the remaining binding at 1 µM ([11]; 1000 nM) was 78%, the remaining binding at 0.1 µM ([12]; 100 nM) was 100% and the remaining binding at 1 µM ([12]; 1000 nM) was 100%. It also gave a remaining binding at 0.1 µM ([13]; 100 nM) of 70%, a remaining binding at 1 µM ([13]; 1000 nM) of 76% and a remaining binding at 1 µM [14] of 8.4%. For the same molecule, the remaining binding at 0.1 µM ([15]; 100 nM) was 100%, the remaining binding at 1 µM ([15]; 1000 nM) was 98% and the remaining binding at 0.1 µM ([16]; 100 nM) was 91%. For the same molecule, the remaining binding at 1 µM ([16]; 1000 nM) was 100%, the remaining binding at 0.1 µM ([17]; 100 nM) was 78% and the remaining binding at 1 µM ([17]; 1000 nM) was 94%. It also gave a remaining binding at 0.1 µM ([18]; 100 nM) of 100%, a remaining binding at 1 µM ([18]; 1000 nM) of 100% and a remaining binding at 0.1 µM ([19]; 100 nM) of 98%. It also gave a remaining binding at 1 µM ([19]; 1000 nM) of 91%, a remaining binding at 0.1 µM ([20]; 100 nM) of 91% and a remaining binding at 1 µM ([20]; 1000 nM) of 65%. For the same molecule, the remaining binding at 0.1 µM ([21]; 100 nM) was 97%, the remaining binding at 1 µM ([21]; 1000 nM) was 81% and the remaining binding at 0.1 µM ([22]; 100 nM) was 100%. It also gave a remaining binding at 1 µM ([22]; 1000 nM) of 100%, a remaining binding at 0.1 µM ([23]; 100 nM) of 84% and a remaining binding at 1 µM ([23]; 1000 nM) of 100%. For the same molecule, the remaining binding at 0.1 µM ([24]; 100 nM) was 84%, the remaining binding at 1 µM ([24]; 1000 nM) was 74% and the remaining binding at 0.1 µM ([25]; 100 nM) was 100%. For the same molecule, the remaining binding at 1 µM ([25]; 1000 nM) was 91%, the remaining binding at 0.1 µM ([26]; 100 nM) was 77% and the remaining binding at 1 µM ([26]; 1000 nM) was 72%. The remaining binding at 0.1 µM ([27]; 100 nM) was 51%, the remaining binding at 1 µM ([27]; 1000 nM) was 51% and the remaining binding at 0.1 µM ([28]; 100 nM) was 93%. It also gave a remaining binding at 1 µM ([28]; 1000 nM) of 60%, a remaining binding at 0.1 µM ([29]; 100 nM) of 100% and a remaining binding at 1 µM ([29]; 1000 nM) of 100%. For the same molecule, the remaining binding at 0.1 µM ([30]; 100 nM) was 100%, the remaining binding at 1 µM ([30]; 1000 nM) was 100% and the remaining binding at 0.1 µM ([31]; 100 nM) was 100%. It also gave a remaining binding at 1 µM ([31]; 1000 nM) of 100%, a remaining binding at 0.1 µM ([32]; 100 nM) of 73% and a remaining binding at 1 µM ([32]; 1000 nM) of 71%. The remaining binding at 0.1 µM ([33]; 100 nM) was 86% and the remaining binding at 1 µM ([33]; 1000 nM) was 76%.
